According to patent publication US10745355B2, “Anti-cancer compounds” (THE UNIVERSITY OF SYDNEY, priority 2015, dated 2020):

Experiments:
U87vIII = experiment: Alamar blue cell viability assay, U87vIII cells; format: cell-based; details: 72 hours of treatment; mean±SEM, three independent experiments
Experimental: (§1) U87 and U251 cell lines were obtained from the European Collection of Cell Cultures (ECACC) through CellBank Australia. U87-EGFRvIII cell line was obtained from their lab of origin (Nishikawa et al., 1994, Proc Natl Acad Sci USA 91: 7727-7731) and tested for EGFR amplification and mutation by immunoblotting and flow cytometry. Cells were cultured in DMEM medium (Invitrogen by Life Technologies, Carlsbad, Calif., USA) supplemented with 10% FBS (Sigma-Aldrich) at 37° C. and 5% CO2. Primary gliomaspheres (RN1, classical; WK1, mesenchymal) were derived from glioblastoma specimens (Day et al., 2013, Cancers 5: 357-371; Day et al., 2013, Cancer Cell 23: 238-248), maintained in StemPro NSC serum-free media supplemented with EGF and FGF (all Life Technologies), and grown on matrigel-coated flasks (Pollard et al., 2009, Cell Stem Cell 4: 568-580).
Cell viability was determined using Alamar blue assay after 72 hours of treatment (Table 2). EC50 values were calculated using non-linear regression on Graph Pad Prism version 5. c Log P values calculated using ChemBioDraw Software. Results are mean±SEM from three independent experiments performed in triplicates.

[1] = tested on: RN1 gliomaspheres (classical); experiment: AlamarBlue cell viability assay, RN1 gliomaspheres; format: cell-based; details: 72 h of drug treatment, FIG. 11A
Experimental: FIGS. 11A-11B. Efficacy of SC-38 (referred to as “CMPD1”), compound 1-08 (referred to as “cmpd 13”), compound 1-18 (referred to as “cmpd 7”), and compound 1-38 (referred to as “cmpd 10”) in primary gliomaspheres representing two glioblastoma subtypes. (11A) RN1, classical, and (11B) WK1, mesenchymal. Cellular efficacy (EC50) of test compounds was determined using AlamarBlue cell viability assay after 72 h of drug treatment. Data are mean±SEM from 3 independent experiments performed in triplicate.
as §1, with “568-580). […]” for “568-580).”

U87 = experiment: Annexin-FITC/7-AAD apoptosis assay, U87 cells; format: cell-based; details: 48 hours treatment
Experimental: FIGS. 4A-4D. […] U87 (4A-4B) and U87vIII (4C-4D) cells were treated with SC-38 for 48 hours and stained with Annexin-FITC/7-AAD. Apoptotic cells were visualized using the MUSE cell analyzer (Millipore).
FIGS. 6A-6D. […] U87 (A B) (6A-6B) and U87vIII (6C-6D) cells were treated with compound 1-08 for 48 hours and stained with Annexin-FITC/7-AAD. Apoptotic cells were visualized using the MUSE cell analyzer (Millipore). Results are means±SEM from 3 independent experiments. One-way ANOVA followed by Dunnet post-test was used to calculate statistical significance (***P<0.001).
(§2) U87 (FIGS. 4, A-B) and U87vIII (FIG. 4, C-D) cells were treated with SC-38 for 48 hours and stained with Annexin-FITC/7-AAD. Apoptotic cells were visualized using the MUSE cell analyzer (Millipore). Results are means±SEM from 3 independent experiments. One-way ANOVA followed by Dunnet post-test was used to calculate statistical significance (**P<0.01, ***P<0.001)
as §2, with “6,” for “4,”, “compound 1-08” for “SC-38”, “three” for “3”, “(***P<0.001).” for “(**P<0.01, ***P<0.001)”

IGF1R = IGF1R (Homo sapiens, UniProt P08069); experiment: Kinase profiling (ProQinase 33PanQinase Activity Assay), IGF1R; format: biochemical; details: read-out: residual activity, IGF1R
Experimental: (§3) The kinase profiling of compound 1-08 at 10 and 50 μM was performed by ProQinase GmbH (Freiburg, Germany). A radiometric protein kinase assay (^33PanQinase® Activity Assay) and the non-radiometric ADP-Glo™ Assay (Promega, Madison, Wis., USA) were used for measuring kinase activity of 387 protein kinases and 13 lipid kinases, respectively. The results are shown in Table 3 (only the top 10 kinases are listed, and the selectivity score describes the portion of kinases inhibited more than 50% in relation to all tested kinases).

[2] = biological target: T1, (Homo sapiens, UniProt P43403); experiment: Kinase profiling (ProQinase 33PanQinase Activity Assay), ZAP90; format: biochemical; details: read-out: residual activity, ZAP90
T1 sequence (P43403 1-619): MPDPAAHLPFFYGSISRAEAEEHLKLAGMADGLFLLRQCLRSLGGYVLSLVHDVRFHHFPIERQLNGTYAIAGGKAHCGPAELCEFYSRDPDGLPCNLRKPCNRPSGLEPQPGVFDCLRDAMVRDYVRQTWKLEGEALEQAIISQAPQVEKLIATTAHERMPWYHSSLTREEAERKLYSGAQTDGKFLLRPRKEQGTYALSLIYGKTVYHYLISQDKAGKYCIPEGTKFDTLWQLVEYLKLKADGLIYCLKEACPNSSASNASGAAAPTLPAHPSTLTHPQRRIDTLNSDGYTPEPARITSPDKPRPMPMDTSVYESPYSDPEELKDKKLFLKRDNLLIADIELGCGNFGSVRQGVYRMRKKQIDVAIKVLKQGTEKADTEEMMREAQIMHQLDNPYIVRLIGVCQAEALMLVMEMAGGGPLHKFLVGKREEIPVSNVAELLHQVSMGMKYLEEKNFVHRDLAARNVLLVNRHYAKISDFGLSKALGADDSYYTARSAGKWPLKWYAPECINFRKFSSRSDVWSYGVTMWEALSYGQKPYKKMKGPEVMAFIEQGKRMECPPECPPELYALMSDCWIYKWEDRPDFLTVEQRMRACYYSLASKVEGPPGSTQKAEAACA
Experimental: as §3

Sequence of IGF1R (P08069 31-1367): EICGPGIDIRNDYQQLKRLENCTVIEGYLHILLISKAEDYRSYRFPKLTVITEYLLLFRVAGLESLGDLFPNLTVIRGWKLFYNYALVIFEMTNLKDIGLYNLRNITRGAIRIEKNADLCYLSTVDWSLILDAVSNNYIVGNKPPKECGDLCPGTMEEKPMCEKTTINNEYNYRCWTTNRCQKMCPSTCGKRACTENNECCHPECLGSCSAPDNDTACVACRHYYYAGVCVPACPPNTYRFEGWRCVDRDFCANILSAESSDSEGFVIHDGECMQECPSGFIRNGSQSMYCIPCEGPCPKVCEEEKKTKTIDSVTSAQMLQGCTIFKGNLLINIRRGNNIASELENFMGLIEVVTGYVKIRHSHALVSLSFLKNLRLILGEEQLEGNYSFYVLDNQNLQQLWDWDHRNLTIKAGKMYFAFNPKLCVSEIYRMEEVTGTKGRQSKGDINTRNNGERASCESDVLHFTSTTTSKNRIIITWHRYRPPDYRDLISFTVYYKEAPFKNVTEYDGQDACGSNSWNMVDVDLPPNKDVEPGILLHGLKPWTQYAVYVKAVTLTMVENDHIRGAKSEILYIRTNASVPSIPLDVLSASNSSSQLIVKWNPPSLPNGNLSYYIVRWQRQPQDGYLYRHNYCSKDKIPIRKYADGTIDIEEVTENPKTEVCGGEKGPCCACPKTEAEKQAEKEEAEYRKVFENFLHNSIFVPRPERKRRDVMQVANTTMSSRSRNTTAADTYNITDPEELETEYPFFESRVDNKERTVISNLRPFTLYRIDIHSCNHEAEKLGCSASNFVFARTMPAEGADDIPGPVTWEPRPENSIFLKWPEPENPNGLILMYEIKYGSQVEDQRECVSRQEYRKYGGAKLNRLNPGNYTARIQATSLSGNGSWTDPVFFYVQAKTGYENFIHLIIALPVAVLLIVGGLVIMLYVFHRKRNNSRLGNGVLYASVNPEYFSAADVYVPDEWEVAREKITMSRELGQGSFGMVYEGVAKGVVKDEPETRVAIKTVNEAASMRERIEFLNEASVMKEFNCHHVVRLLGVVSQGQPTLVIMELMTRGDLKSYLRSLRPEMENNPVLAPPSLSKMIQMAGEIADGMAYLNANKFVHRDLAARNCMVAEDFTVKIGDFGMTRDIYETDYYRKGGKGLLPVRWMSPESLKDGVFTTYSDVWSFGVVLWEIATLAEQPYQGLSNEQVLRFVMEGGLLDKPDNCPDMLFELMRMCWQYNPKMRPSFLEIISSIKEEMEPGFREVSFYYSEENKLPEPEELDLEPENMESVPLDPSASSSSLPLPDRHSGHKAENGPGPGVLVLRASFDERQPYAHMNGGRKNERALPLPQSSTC

O=C(CCCc1ccc(-c2cnc3ccccc3c2)cc1)Nc1ccc(O)cc1 [Compound 1-08, N-(4-hydroxyphenyl)-4-(4-(quinolin-3-yl)phenyl)butanamide]
EC50 (U87vIII): 1300 ± 400 nM
EC50 [1]: 540 nM
apoptosis, U87 (U87): induced apoptosis
remaining activity at 10 µM (IGF1R; 10 μM compound): 73%
remaining activity at 50 µM (IGF1R; 50 μM compound): 15%
remaining activity at 10 µM ([2]; 10 μM compound): 60%
remaining activity at 50 µM ([2]; 50 μM compound): 14%
